Results on 40 compounds are retold here after patent US9382216B2, “Substituted morpholines as modulators for the calcium sensing receptor” (LUPIN LIMITED, priority 2011, dated 2016).

One may read the EC50 as the midpoint of the concentration-response curve.

In this test the target is T1, hCaSR (Calcium sensing receptor) in stably transfected HEK293 cells (Homo sapiens, UniProt P41180).
T1 construct: expressed in transfected cells; host or cells: HEK293 (stably transfected)
T1 sequence (P41180 20-1078): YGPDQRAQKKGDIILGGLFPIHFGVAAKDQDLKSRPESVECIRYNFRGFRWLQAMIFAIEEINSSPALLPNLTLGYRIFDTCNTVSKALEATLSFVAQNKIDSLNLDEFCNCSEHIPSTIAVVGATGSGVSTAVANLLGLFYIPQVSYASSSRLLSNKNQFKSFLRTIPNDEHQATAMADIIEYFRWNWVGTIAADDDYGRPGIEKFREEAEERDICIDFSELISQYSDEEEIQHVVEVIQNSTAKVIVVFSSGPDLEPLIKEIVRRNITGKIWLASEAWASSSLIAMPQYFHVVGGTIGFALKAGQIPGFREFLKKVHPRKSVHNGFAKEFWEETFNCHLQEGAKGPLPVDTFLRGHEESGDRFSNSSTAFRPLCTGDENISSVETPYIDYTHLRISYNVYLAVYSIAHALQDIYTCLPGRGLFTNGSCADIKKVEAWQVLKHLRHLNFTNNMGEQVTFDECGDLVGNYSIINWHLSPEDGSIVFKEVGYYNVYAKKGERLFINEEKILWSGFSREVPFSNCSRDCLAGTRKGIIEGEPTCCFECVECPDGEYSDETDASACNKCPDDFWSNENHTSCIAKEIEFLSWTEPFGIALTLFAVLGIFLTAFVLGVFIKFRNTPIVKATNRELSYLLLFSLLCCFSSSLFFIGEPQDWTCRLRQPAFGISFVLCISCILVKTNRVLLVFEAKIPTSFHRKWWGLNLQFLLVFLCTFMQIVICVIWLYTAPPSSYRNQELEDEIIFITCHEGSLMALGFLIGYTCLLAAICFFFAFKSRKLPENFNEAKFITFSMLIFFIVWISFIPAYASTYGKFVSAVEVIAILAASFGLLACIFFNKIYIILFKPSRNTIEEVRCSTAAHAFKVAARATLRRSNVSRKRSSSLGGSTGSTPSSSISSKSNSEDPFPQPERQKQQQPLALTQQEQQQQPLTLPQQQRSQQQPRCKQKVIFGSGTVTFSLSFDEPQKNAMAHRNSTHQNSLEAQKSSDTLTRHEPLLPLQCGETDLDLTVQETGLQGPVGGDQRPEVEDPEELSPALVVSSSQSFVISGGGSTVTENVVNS
Put plainly: In-vitro assay of calcimimetics through modulation of calcium sensing receptor (CaSR): increase in intracellular calcium, FLIPR. Format: cell-based. Particulars: HEK293 cells expressing hCaSR; intracellular calcium (Fluo4NW, FLIPR); 0.3 mM CaCl2; 8-point assay; read-out: EC50 in range. The protocol: In-Vitro Assay Method of Calcimemtics Through Modulation of Calcium Sensing Receptor (CaSR):
The ability of the compounds to modulate Calcium sensing receptor is determined by measuring an increase in intracellular calcium [Ca^2+i]. Stably transfected HEK293 cells expressing hCaSR_pTriEx-3 hygro vector are developed. Cells are grown overnight on a 96-well plate to 80% confluency in Ham's F12 containing 20% FBS at 37° C., 5% CO2 Subsequently, cells are washed extensively with 20 mM HEPES buffer containing 126 mM NaCl2, 1 mM MgCl2 and 4 mM KCl2 to remove serum components that might interfere with the assay. Cells are loaded with calcium sensing Fluo4NW dye in HEPES base buffer containing 0.1% BSA and 1 mg/ml glucose for 30 minutes to measure changes in intracellular calcium. The activities of the compounds are measured in FLIPR using 0.3 mM CaCl2 in 20 mM HEPES base buffer. The effectiveness of the compound to modulate receptor activity is determined by calculating the EC50 responses for that compound in an 8-point assay and plotted using GraphPad Prism 5.
The compounds prepared were tested using the above assay procedure and the results obtained are given below.
(A change in cytosolic calcium serves as a functional read-out for many receptors and channels.)

The structures appear in SMILES notation. Counter-ions that a name gives are not always drawn.

For `COc1cccc([C@@H](C)NCC2COCCN2c2cccc(C(F)(F)F)c2)c1` (single isomer, unassigned) [4a], the EC50 was in the range of 20 to 50 nM.

Regarding `COc1cccc(N2CCOCC2CN[C@H](C)c2cccc3ccccc23)c1` (single isomer, unassigned) [5a], the EC50 lay in the range of 50 to 200 nM.

Turning to `COc1cccc(N2CCOCC2CN[C@H](C)c2cccc3ccccc23)c1` (single isomer, unassigned) [5b], the 50% effective concentration (EC50) was below 20 nM.

As for `COc1cccc([C@@H](C)NCC2COCCN2c2cccc(OC)c2)c1` (single isomer, unassigned) [6a], the EC50 lay within 20 to 50 nM.

`Cc1ccc(N2CCOCC2CN[C@H](C)c2cccc3ccccc23)cc1` (single isomer, unassigned) [7b]: the EC50 lay in the range of 20 to 50 nM.

On to `COc1cccc([C@@H](C)NCC2COCCN2c2cccc(C)c2)c1` (single isomer, unassigned) [10a], for which the EC50 lay within 50 to 200 nM.

With `COc1cccc([C@@H](C)NCC2COCCN2c2cccc(C)c2)c1` (single isomer, unassigned) [10b], the EC50 is below 20 nM.

For the compound `COc1cccc([C@@H](C)NCC2COCCN2c2ccccc2)c1` (single isomer, unassigned) [11a], the EC50 was below 20 nM.

For `COc1cccc(N2CCOC(CN[C@H](C)c3cccc4ccccc34)C2)c1` (single isomer, unassigned) [25a], the EC50 was below 20 nM.

Regarding `COc1cccc(N2CCOC(CN[C@H](C)c3cccc4ccccc34)C2)c1` (single isomer, unassigned) [25b], the concentration giving a half-maximal response (EC50) was in the range of 20 to 50 nM.

With `C[C@@H](NCC1CN(c2ccccc2)CCO1)c1cccc2ccccc12` (single isomer, unassigned) [26a], the EC50 is below 20 nM.

For the compound `Cc1ccc(N2CCOC(CN[C@H](C)c3cccc4ccccc34)C2)cc1` (single isomer, unassigned) [27a], the EC50 was in the range of 50 to 200 nM.

In the case of `Cc1ccc(N2CCOC(CN[C@H](C)c3cccc4ccccc34)C2)cc1` (single isomer, unassigned) [27b], the EC50 was below 20 nM.

Turning to `C[C@@H](NCC1CN(c2ccc(C(F)(F)F)cc2)CCO1)c1cccc2ccccc12` (single isomer, unassigned) [33a], the concentration for a half-maximal effect (EC50) is below 20 nM.

As to `C[C@@H](NCC1CN(c2ccc(C(F)(F)F)cc2)CCO1)c1cccc2ccccc12` (single isomer, unassigned) [33b], the EC50 was in the range of 20 to 50 nM.

Consider `C[C@@H](NCC1CN(c2ccc(F)c(F)c2)C(=O)CO1)c1cccc2ccccc12` (single isomer, unassigned) [62a, hydrochloride], for which the EC50 was below 20 nM.

For `C[C@@H](NCC1CN(c2ccc(F)c(F)c2)C(=O)CO1)c1cccc2ccccc12` (single isomer, unassigned) [62b, hydrochloride], the EC50 was in the range of 20 to 50 nM.

Regarding `C[C@@H](NCC1CN(Cc2cccc(C(F)(F)F)c2)C(=O)CO1)c1cccc2ccccc12` (single isomer, unassigned) [Example 70a, hydrochloride], the EC50 was below 20 nM.

For `C[C@@H](NCC1CN(Cc2cc(F)ccc2F)C(=O)CO1)c1cccc2ccccc12` (single isomer, unassigned) [Example 72a, hydrochloride], the concentration giving a half-maximal response (EC50) is below 20 nM.

`CC(C)N1CC(CN[C@H](C)c2cccc3ccccc23)OCC1=O` (single isomer, unassigned) [Example 93b, hydrochloride]: the EC50 lay in the range of 50 to 200 nM.

With `C[C@@H](NCC1CN(CC2CC2)C(=O)CO1)c1cccc2ccccc12` (single isomer, unassigned) [Example 97a, hydrochloride], the EC50 was below 20 nM.

`C[C@@H](NCC1CN(CCc2ccc(F)cc2)C(=O)CO1)c1cccc2ccccc12` (single isomer, unassigned) [Example 98a, hydrochloride]: the EC50 was below 20 nM.

For `COc1cc([C@@H](C)NCC2CN(Cc3ccc(F)cc3)C(=O)CO2)ccc1F` (single isomer, unassigned) [Example 101a, hydrochloride], the EC50 lay in the range of 20 to 50 nM.

For `Cc1cc(N2CCOC(CCN[C@H](C)c3cccc4ccccc34)C2)ccc1C(=O)O` (single isomer, unassigned) [Example 104a], the EC50 was in the range of 50 to 200 nM.

In the case of `Cc1ccc(N2CCOC(CCN[C@H](C)c3cccc4ccccc34)C2)cc1CCC(=O)O` (single isomer, unassigned) [Example 108a, hydrochloride], the EC50 was 20 to 50 nM.

On to `C[C@@H](NCCC1CN(c2ccc(C(F)(F)F)c(C(=O)O)c2)CCO1)c1cccc2ccccc12` (single isomer, unassigned) [Example 110a, hydrochloride], for which the EC50 was in the range of 50 to 200 nM.

Take `C[C@@H](NCCC1CN(c2ccc(C(=O)O)cc2)CCO1)c1cccc2ccccc12` (single isomer, unassigned) [Example 112a, hydrochloride]: the EC50 fell in the range of 50 to 200 nM.

On to `C[C@@H](NCCC1CN(c2cccc(OCC(=O)O)c2)CCO1)c1cccc2ccccc12` (single isomer, unassigned) [Example 113a, hydrochloride], for which the EC50 lay in the range of 50 to 200 nM.

On to `Cc1cc(N2CCOC(CN[C@H](C)c3cccc4ccccc34)C2)ccc1C(=O)O` (single isomer, unassigned) [Example 136b, hydrochloride], for which the EC50 was 50 to 200 nM.

On to `C[C@@H](NCC1CN(c2cc(C(=O)O)cc(C(F)(F)F)c2)CCO1)c1cccc2ccccc12` (single isomer, unassigned) [Example 150a, hydrochloride], for which the EC50 is below 20 nM.

On to `COc1cc([C@@H](C)NCC2CN(c3ccc(F)c(F)c3)C(=O)CO2)ccc1F` (single isomer, unassigned) [Example 152b, hydrochloride], for which the EC50 fell in the range of 50 to 200 nM.

For the compound `COc1cc([C@@H](C)NCC2CN(Cc3cc(F)ccc3F)C(=O)CO2)ccc1F` (single isomer, unassigned) [Example 160a, hydrochloride], the EC50 lay within 20 to 50 nM.

With `C[C@@H](NCC1COCCN1c1ccccc1)c1cccc2ccccc12` (single isomer, unassigned) [Example-1a, hydrochloride], the EC50 was below 20 nM.

As to `C[C@@H](NCC1COCCN1c1cccc(C(F)(F)F)c1)c1cccc2ccccc12` (single isomer, unassigned) [Example-2a], the EC50 was below 20 nM.

With `C[C@@H](NCC1COCCN1Cc1cccc(C(F)(F)F)c1)c1cccc2ccccc12` (single isomer, unassigned) [Example-35b], the EC50 lay within 20 to 50 nM.

`C[C@@H](NCC1COCCN1Cc1ccccc1)c1cccc2ccccc12` (single isomer, unassigned) [Example-36a]: the EC50 fell in the range of 50 to 200 nM.

On to `COc1cccc([C@@H](C)NCC2COCCN2Cc2ccccc2)c1` (single isomer, unassigned) [Example-37b], for which the EC50 lay within 50 to 200 nM.

Turning to `C[C@@H](NCC1CN(CC2CCCC2)C(=O)CO1)c1cccc2ccccc12` (single isomer, unassigned) [Example-69a], the EC50 lay within 50 to 200 nM.

Take `C[C@@H](NCC1CN(C2CCCC2)C(=O)CO1)c1cccc2ccccc12` (stereo partly drawn) [Example 76, 4-Cyclopentyl-6-((((R)-1-(naphthalen-1-yl)ethyl)amino)methyl)morpholin-3-one hydrochloride]: the EC50 is below 20 nM.

As to `C[C@@H](NCC1CN(Cc2cccc(F)c2F)C(=O)CO1)c1cccc2ccccc12` (stereo partly drawn) [Example 81, 4-(2,3-Difluorobenzyl)-6-((((R)-1-(naphthalen-1-yl)ethyl)amino)methyl)morpholin-3-one hydrochloride], the EC50 was below 20 nM.
